Measured values as given in patent US5126347A, “Isomeric dideoxynuclesides” (Hoffmann-La Roche Inc., priority 1989, dated 1992).

Tests used:
[1] = tested on: HIV (HTLV-III); assay: HIV-cytopathic Effect Inhibition Assay; assay type: cell-based; conditions: survival of drug treated target cells with HIV (HTLV-III), seven days; FIGS. 1 to 3
Description: Compounds I and II were tested in the HIV-cytopathic Effect Inhibition Assay as described in the publication by Mitsuya, et al. Proc. Nat'l Acad. Sci., USA, 83:1911 (1986), which publication is hereby incorporated by reference.
The cells were exposed to either Compound I, Compound II, or AZT, and the survival of drug treated target cells determined seven days thereafter.
The black bars represent survival of compound treated target cells when HIV (HTLV-III) is added. The light bars represent survival of compound treated target cells in the absence of virus.

[2] = tested on: HIV, HTLV III; RF strain; assay: HIV antigen capture ELISA, virus growth in CD4+ T-lymphocytes; assay type: cell-based; conditions: C8166 CD4+ T-cell line; for IC50: Human immunodeficiency virus 1, T-lymphocyte, supernatant antigen at 72 hours post-infection
Description: The Enzyme Linked Immuno-absorbent Assay (ELISA) was used to test compounds I and II for anti-HIV activity by measuring virus growth in CD4^+ T-lymphocytes by detecting antigen released into the tissue culture supernatant of infected cells.
High titre virus stocks [HIV, HTLV III; RF strain] were grown in H9 cells in RPMI 1640 (Flow Laboratories) supplemented with 10% fetal calf serum, penicillin (100 IU/ml) and streptomycin (100 ug/ml). Cell debris was removed by low speed centrifugation and the supernatant stored at -70° C. until required. The host cell line used in the antiviral assays was the C8166 CD4^+ T-cell line which is particularly susceptible to infection with HIV. Cells were incubated with 10 TCID50, HIV/HTLV III(RF) at 37° C. for 90 minutes and then washed three times with PBSA. Cell aliquots (2×10^5) were resuspended in 1.5 ml growth medium in 6 ml tubes and incubated at 37° C. At 72 hours post-infection, the supernatants from the cell cultures were assayed immediately for HIV antigen.
The antigen capture ELISA used was purchased from Coulter (Luton, UK). The assays were carried out on supernatants taken from infected cell cultures using the steps described by the manufacturers. In each assay the corresponding positive and negative internal controls were included together with a supernatant control taken from uninfected cells. The plates were read using the appropriate spectrophotometric detection system.

IC50 [2] | SMILES | anti-HIV activity relative to known antiretroviral therapeutics (AZT) [1] | antiviral activity in this test system, compared to ddA ([2]; antigen ELISA)
3000 to 10000 nM | Nc1ncnc2c1ncn2[C@H]1CO[C@@H](CO)C1 [Compound I, (2R-cis)-4-(6-Amino-9H-purin-9-yl)tetrahydro-2-furanmethanol] | equivalent to that of antiretroviral therapeutics known to have in vivo activity against HIV, most particularly AZT | comparable to that of a known anti-HIV agent ddA
1000 to 3000 nM | Nc1ncnc2c1ncn2[C@H]1CC[C@@H](CO)O1 [ddA, 2',3'-dideoxyadenosine, reference compound] | – | –
– | Nc1nc2c(ncn2[C@H]2CO[C@@H](CO)C2)c(=O)[nH]1 [Compound II] | equivalent to that of antiretroviral therapeutics known to have in vivo activity against HIV, most particularly AZT | –
